Experimental findings from BindingDB's records for doi:10.1021/jm030398k (National Institute of Diabetes and Digestive and Kidney …, 2004) are described below.

In this experiment the target is tyramine oxidase (microbial). As to the kind of experiment: Compound was evaluated for inhibition of Microbial tyramine oxidase; irreversible.

`NNC(=O)C1(c2ccccc2)CC1F` (stereo unspecified) [2-Fluoro-1-phenyl-cyclopropanecarboxylic acid hydrazide] gave an IC50 of 20 µM.
